Test results published in ChEMBL document CHEMBL1201862, “PubChem BioAssay data set” (2004).
Calls of active or inactive are those of the source.

Columns and labels:
[1] = HepG2 cell cytotoxicity, dose response, cytotoxicity control for non-replicating M. tuberculosis project (AID 489018); type: functional; settings: Mycobacterium tuberculosis
Beta-galactosidase [2] = target: T1, Beta-galactosidase (Escherichia coli, UniProt Q8VNN2); type: functional
[3] = tested on: Streptococcus sp. 'group A'; assay: Streptococcus pyogenes SK(-)GAS viability under kanamycin – luminescence, BacTiterGlo, confirmation, counter-screen for streptokinase expression inhibitor project, dose response (AID 1900); type: functional, organism-based
[4] = THP-1 cell cytotoxicity, dose response, cytotoxicity control for non-replicating M. tuberculosis project (AID 489025); type: functional
[5] = viability loss in HEK293 cells – cell-based, plate reader, cherry-picked samples, cytotoxicity control, dose response (AID 743446); type: functional
[6] = blockers of bursicon-stimulated LGR2 cAMP reporter – cell-based, HEK293, CRE-luciferase reporter, cherry pick, set 2, dose response (AID 743343); type: functional;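 note: transfected cells were stimulated with diluted bursicon conditioned medium after compound addition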
[7] = A549 cell cytotoxicity, dose response, cytotoxicity control, plate reader, cherry-pick, antagonist series (AID 743412); type: functional, cell-based
[8] = target: T2, Type-1 angiotensin II receptor (Homo sapiens, UniProt P30556); assay: antagonism of angiotensin II type 1 receptor – cell-based, uHTS hits, selectivity assay for APJ receptor antagonist project, dose response (AID 463214); type: functional;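 note: antagonist potency against angiotensin II stimulated AT1 response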
T2 sequence (P30556 whole entry): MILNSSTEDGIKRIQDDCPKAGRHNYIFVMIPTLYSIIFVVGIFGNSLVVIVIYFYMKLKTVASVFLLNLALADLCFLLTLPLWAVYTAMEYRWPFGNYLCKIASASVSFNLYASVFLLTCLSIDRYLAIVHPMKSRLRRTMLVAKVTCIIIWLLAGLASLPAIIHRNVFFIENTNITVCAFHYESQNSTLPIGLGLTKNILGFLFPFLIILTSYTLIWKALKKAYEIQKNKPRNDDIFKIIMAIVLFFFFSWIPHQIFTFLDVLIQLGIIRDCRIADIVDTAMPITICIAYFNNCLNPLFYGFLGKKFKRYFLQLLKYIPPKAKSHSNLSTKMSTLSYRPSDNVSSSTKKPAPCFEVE

cells = type: functional
[9] = toxicity toward HepG2 liver cells – cell-based, plate reader, cherry-pick, antagonist series, cytotoxicity control, dose response (AID 743416); type: functional
[10] = target: T3, Kappa-type opioid receptor (Homo sapiens, UniProt P41145); type: functional
T3 sequence (P41145 whole entry): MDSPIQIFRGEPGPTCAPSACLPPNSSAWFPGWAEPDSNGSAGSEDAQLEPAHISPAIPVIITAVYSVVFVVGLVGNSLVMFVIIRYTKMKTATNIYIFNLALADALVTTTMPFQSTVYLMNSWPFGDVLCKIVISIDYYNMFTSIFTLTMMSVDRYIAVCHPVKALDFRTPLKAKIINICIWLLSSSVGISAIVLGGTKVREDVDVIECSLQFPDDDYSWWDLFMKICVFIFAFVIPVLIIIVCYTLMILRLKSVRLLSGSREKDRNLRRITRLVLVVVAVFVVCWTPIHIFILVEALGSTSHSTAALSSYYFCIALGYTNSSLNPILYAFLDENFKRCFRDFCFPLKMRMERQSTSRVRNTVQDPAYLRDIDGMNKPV

Streptokinase A = target: T4, Streptokinase A (Streptococcus pyogenes serotype M1, UniProt P10520); assay: viability-normalized secreted streptokinase activity reduction – plasminogen activation absorbance, OD405, dose response (AID 1914); type: functional, Streptococcus pyogenes M1 GAS;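 note: secreted streptokinase activity via plasminogen activation per viability signal from cell pellet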
T4 sequence (P10520 whole entry): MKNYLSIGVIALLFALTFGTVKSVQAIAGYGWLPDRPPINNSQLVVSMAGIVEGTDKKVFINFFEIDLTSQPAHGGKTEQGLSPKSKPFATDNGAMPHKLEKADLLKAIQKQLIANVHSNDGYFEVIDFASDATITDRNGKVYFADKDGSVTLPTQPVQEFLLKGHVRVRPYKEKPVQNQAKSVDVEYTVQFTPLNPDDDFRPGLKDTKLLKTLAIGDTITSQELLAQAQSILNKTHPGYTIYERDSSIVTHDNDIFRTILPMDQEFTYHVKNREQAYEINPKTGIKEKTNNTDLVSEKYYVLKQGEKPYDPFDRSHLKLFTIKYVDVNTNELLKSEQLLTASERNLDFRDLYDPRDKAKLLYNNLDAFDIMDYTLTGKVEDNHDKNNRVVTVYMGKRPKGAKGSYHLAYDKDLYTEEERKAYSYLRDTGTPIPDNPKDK

INS1 = assay: INS-1E survival protection against cytokine death – cell-based, luminescence, retest, dose response (AID 449756); type: functional; settings: Rattus norvegicus;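 note: cell death triggered by IL-1 beta plus TNF-alpha plus IFN-gamma mixture; protective hits raise ATP signal compared with cytokine alone wells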
[11] = target: T3, Kappa-type opioid receptor; type: functional; remark: listed apart in the source
[12] = blockade of melanocortin 4 receptor signaling – cell-based, plate reader, cherry pick, counter-screen for LGR2 antagonist project, dose response (AID 743444); type: functional;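 note: transfected HEK 293 cells stimulated with alpha-MSH peptide; potency of inhibitors of the alpha-MSH evoked signal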
[13] = Vero E6 cell cytotoxicity, dose response, cytotoxicity control for non-replicating M. tuberculosis project, secondary assay (AID 492998); type: functional, VeroE6; settings: Vero C1008
Beta-galactosidase [14] = target: T1, Beta-galactosidase; assay: PubChem AID 485352; type: functional
Streptococcus = assay: GAS UMAA2166 growth inhibition – luminescence, BacTiterGlo, counter-screen for streptokinase expression inhibitor project, dose response (AID 1915); type: functional, organism-based;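 note: potency for reduction of bacterial viability or growth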
SUMO-activating enzyme [15] = target: T5, SUMO-activating enzyme (Homo sapiens, UniProt Q9UBT2); assay: blockers of SAE1/SAE2–UBC9 SUMO transfer – biochemical, HTRF, uHTS, primary screen (AID 2006); type: protein-complex assay
T5 sequence (Q9UBE0 whole entry): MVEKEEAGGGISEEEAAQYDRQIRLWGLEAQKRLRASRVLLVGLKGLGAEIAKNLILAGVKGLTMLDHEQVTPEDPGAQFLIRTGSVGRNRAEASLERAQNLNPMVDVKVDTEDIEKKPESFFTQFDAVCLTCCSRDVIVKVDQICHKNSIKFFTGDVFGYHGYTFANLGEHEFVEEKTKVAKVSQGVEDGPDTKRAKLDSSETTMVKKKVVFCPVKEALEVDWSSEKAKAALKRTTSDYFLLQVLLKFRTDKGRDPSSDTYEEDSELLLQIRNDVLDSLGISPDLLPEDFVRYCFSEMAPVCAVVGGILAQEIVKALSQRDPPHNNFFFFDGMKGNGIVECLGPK
T5 sequence (Q9UBT2 whole entry): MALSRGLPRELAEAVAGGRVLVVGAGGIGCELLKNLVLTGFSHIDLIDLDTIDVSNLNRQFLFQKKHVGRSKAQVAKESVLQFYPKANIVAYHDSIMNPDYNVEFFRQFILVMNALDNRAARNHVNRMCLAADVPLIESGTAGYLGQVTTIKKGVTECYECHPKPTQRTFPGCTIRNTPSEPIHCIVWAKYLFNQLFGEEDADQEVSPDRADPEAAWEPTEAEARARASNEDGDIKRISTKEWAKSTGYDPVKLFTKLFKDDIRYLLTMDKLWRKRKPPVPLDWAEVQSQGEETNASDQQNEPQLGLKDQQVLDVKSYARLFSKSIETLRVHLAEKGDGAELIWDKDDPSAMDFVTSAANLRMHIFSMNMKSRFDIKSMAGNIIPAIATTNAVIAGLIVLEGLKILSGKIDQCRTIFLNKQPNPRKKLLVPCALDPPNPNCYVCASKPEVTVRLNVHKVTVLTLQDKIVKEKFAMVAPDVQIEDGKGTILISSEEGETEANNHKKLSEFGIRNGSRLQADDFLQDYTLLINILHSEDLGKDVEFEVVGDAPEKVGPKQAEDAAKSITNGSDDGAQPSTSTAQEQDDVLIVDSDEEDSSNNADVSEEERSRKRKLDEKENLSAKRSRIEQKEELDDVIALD

[16] = target: Dual specificity tyrosine-phosphorylation-regulated kinase 1A (Rattus norvegicus, UniProt Q63470); type: biochemical, Homo sapiens
[17] = target: T6, Calpain-2 catalytic subunit (Sus scrofa, UniProt P43367); assay: m-calpain protease blockers, concentration series – biochemical, fluorogenic peptide substrate, dose response (AID 1420); type: functional
T6 sequence (P43367 whole entry): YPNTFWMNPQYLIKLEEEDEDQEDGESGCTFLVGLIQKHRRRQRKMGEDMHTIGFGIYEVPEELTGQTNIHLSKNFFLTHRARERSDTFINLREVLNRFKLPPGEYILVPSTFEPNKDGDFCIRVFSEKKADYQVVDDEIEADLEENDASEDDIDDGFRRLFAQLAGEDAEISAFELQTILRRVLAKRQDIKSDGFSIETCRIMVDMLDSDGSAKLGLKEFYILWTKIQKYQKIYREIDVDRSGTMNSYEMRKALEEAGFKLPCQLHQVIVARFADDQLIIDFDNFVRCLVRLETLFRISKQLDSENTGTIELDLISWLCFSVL

SUMO-activating enzyme [18] = target: T5, SUMO-activating enzyme; assay: blockers of UBC9-mediated SUMO conjugation – biochemical, AlphaScreen, SUMOylation inhibitor project, confirmation (AID 2018); type: functional
[19] = target: Intestinal-type alkaline phosphatase (Homo sapiens, UniProt P09923); assay: Dose Response confirmation of uHTS hits from a small molecule inhibitors of human intestinal alkaline phosphatase via a luminescent assay. [Related pubchem assays (depositor defined):AID2544, AID2574]; type: functional
Intestinal-type alkaline phosphatase, sequence (P09923 whole entry): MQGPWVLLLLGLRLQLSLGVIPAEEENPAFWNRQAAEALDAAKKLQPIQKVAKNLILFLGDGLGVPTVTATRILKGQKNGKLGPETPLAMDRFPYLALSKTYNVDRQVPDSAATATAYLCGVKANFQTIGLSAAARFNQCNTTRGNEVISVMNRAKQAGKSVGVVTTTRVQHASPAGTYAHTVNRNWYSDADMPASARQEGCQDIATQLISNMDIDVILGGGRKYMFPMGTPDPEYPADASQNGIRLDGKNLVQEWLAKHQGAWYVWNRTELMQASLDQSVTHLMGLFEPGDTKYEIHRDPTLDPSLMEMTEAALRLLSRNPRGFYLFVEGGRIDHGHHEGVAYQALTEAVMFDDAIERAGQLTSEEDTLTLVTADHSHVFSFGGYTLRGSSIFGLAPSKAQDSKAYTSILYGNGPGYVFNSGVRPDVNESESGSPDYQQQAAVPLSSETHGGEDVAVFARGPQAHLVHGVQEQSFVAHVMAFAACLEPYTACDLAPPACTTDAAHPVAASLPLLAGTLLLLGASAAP

Beta-galactosidase [20] = target: T1, Beta-galactosidase; assay: detection-enzyme interference by beta-gal modulators – biochemical, E. coli enzyme, set 3, artefact control for CCR6 antagonist project, dose response (AID 504712); type: functional
[21] = target: T7, C-C chemokine receptor type 6 (Homo sapiens, UniProt P51684); assay: antagonism of CCR6 beta-arrestin recruitment – cell-based, luminescent beta-arrestin readout, dose response (AID 504728); type: functional
T7 sequence (P51684 whole entry): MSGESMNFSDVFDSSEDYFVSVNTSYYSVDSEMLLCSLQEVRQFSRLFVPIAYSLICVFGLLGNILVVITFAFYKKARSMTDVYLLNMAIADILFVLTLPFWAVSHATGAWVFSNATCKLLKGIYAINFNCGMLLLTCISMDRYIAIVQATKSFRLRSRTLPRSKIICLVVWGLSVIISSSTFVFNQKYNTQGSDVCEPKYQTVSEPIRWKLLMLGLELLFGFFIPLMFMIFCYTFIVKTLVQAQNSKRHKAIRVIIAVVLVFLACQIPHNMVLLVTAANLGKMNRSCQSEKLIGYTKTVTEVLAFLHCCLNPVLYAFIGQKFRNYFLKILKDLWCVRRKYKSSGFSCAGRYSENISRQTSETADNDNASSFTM

[22] = target: Induced myeloid leukemia cell differentiation protein Mcl-1 (Homo sapiens, UniProt Q07820); type: functional
[23] = target: 72 kDa type IV collagenase (Homo sapiens, UniProt P08253); assay: Dose Response validation of uHTS RPN11 inhibitor hits using a MMP-2 Fluorescence assay.; type: functional
72 kDa type IV collagenase, sequence (P08253 whole entry): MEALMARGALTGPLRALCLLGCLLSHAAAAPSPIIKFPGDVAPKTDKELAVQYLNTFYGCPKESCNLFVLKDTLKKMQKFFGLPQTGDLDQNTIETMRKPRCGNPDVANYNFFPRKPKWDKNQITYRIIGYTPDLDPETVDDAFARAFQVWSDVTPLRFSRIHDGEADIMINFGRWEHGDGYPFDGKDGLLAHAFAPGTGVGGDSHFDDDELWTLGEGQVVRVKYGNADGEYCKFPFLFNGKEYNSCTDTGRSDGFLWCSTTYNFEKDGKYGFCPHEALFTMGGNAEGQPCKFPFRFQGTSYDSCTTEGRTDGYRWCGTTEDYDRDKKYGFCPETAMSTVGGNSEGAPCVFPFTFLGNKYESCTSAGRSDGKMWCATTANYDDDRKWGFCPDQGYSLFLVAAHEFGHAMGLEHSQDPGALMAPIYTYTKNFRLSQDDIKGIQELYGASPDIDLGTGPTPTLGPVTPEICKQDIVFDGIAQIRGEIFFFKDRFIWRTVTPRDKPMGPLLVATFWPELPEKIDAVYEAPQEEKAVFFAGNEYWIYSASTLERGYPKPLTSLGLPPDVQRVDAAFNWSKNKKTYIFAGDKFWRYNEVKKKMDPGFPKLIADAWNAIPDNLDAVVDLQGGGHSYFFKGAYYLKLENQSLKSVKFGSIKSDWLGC

[24] = target: 26S proteasome non-ATPase regulatory subunit 14 (Homo sapiens, UniProt O00487); assay: inhibition of proteasome subunit RPN11 – biochemical, fluorescence polarization, uHTS hits, confirmation (AID 602368); type: functional
26S proteasome non-ATPase regulatory subunit 14, sequence (O00487 whole entry): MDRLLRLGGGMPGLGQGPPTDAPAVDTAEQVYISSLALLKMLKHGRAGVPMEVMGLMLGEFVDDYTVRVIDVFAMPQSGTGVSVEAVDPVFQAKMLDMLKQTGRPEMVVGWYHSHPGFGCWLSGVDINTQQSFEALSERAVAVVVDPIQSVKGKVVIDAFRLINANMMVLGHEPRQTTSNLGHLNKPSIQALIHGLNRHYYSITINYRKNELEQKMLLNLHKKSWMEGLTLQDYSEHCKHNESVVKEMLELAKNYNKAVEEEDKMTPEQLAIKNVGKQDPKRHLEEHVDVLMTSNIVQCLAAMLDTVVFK

Prothrombin = Prothrombin (Bos taurus, UniProt P00735); assay: thrombin protease inhibitors – biochemical, fluorescence polarization, uHTS hits, dose response (AID 602369); type: functional
[25] = target: T8, Short transient receptor potential channel 4 (Mus musculus, UniProt Q9QUQ5); assay: potentiation of DAMGO-evoked TRPC4 calcium signal – cell-based, HEK293 TRPC4/mu-opioid, Fluo-4 calcium, EC20 DAMGO, dose response (AID 434941); type: functional
T8 sequence (Q9QUQ5 whole entry): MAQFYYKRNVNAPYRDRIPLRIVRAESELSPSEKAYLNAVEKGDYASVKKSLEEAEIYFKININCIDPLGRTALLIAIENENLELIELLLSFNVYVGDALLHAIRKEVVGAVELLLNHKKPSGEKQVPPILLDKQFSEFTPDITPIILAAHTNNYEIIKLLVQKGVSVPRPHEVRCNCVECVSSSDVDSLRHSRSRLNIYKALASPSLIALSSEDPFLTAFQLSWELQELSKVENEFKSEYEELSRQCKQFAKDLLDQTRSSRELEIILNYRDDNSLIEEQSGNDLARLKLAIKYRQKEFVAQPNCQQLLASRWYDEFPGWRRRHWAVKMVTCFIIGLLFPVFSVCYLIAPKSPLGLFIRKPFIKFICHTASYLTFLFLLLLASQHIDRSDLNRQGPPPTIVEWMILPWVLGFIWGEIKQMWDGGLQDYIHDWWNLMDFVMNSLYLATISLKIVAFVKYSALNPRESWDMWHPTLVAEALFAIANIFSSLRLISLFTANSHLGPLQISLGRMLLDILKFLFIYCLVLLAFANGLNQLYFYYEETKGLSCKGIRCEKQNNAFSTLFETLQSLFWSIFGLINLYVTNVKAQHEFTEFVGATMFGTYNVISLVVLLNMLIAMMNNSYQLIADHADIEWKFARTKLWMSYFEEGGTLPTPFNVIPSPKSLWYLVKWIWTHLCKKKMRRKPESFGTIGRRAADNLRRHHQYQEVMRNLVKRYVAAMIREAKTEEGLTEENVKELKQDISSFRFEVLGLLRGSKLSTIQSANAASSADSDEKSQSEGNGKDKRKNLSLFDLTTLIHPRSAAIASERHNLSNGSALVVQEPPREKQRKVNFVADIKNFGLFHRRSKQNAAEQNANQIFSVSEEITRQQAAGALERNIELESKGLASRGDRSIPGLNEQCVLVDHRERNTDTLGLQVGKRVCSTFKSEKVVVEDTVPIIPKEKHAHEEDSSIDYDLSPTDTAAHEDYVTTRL

Cytochrome P450 2D6 = Cytochrome P450 2D6 (Homo sapiens, UniProt P10635);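 note: CYP2D6 member of a cytochrome P450 panel assay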
Cytochrome P450 2D6, sequence (P10635 whole entry): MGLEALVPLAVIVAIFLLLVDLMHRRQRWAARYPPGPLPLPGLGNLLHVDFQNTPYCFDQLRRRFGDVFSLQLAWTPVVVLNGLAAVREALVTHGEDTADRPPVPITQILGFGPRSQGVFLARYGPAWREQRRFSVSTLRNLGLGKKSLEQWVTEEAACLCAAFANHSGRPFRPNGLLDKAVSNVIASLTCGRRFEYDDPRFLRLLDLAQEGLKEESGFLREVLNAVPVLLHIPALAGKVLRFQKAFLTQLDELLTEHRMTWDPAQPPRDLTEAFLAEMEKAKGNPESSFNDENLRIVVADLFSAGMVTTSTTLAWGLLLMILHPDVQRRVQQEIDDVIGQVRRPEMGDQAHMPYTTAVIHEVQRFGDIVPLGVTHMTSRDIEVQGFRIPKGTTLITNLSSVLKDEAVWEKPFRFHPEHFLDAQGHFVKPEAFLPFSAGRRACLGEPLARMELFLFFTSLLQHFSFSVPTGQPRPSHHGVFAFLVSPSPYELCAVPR

Cytochrome P450 2C9 = Cytochrome P450 2C9 (Homo sapiens, UniProt P11712)
Cytochrome P450 2C9, sequence (P11712 whole entry): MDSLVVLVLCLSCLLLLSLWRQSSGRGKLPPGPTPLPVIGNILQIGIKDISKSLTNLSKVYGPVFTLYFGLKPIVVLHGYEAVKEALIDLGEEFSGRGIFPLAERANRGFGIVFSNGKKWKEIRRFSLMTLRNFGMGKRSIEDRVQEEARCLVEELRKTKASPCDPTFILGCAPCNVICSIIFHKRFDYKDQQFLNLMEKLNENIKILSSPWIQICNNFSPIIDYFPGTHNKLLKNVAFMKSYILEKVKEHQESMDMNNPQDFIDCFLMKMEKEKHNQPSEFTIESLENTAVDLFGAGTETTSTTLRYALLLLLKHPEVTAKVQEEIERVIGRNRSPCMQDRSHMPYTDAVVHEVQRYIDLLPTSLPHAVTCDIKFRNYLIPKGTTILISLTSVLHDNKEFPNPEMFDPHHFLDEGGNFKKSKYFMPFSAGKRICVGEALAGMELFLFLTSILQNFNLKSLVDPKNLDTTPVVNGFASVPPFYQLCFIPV

T1 sequence (Q8VNN2 whole entry): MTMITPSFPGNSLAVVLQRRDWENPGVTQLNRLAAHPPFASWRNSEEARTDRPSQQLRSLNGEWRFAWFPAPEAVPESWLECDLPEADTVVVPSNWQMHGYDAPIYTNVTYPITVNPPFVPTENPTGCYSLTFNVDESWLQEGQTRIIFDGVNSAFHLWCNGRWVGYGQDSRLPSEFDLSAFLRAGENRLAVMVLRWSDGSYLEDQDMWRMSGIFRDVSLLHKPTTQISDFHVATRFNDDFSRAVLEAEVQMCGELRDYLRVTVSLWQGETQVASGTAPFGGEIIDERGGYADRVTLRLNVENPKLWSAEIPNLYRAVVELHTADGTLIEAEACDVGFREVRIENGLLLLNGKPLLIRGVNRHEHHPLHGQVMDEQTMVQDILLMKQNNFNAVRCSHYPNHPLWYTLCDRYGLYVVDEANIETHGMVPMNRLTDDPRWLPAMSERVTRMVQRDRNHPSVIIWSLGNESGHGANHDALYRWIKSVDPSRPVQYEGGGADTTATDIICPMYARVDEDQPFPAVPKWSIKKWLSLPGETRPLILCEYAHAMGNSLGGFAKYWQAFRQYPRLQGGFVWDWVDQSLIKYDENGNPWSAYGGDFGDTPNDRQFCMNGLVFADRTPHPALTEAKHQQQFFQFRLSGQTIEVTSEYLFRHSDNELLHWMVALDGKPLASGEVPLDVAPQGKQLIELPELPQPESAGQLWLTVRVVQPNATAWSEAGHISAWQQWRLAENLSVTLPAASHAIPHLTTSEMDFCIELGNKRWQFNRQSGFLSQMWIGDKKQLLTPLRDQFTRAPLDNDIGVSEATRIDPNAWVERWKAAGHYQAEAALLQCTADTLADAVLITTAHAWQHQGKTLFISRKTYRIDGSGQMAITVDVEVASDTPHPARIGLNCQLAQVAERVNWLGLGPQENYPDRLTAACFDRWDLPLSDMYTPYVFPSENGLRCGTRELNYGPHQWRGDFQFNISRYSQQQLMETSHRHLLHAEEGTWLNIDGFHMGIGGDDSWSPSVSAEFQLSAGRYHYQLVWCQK

O=C(Nc1nc2ccc(F)cc2s1)c1ccccn1
CC50 [1]: > 5 µM (active)
EC50 (Beta-galactosidase [2]): > 31.5 µM (inactive)
EC50 [3]: 2.5 µM (active)
CC50 [4]: 0.982 µM (active)
AC50 [5]: 8.2 µM (active)
AC50 [6]: 1.21 µM (active)
AC50 [7]: 3.57 µM (active)
IC50 [8]: 3.96 µM (active)
IC50 (cells): < 0.1 µM (active)
AC50 [9]: 10 µM (active)
IC50 [10]: > 32 µM
EC50 (Streptokinase A): > 150 µM (not active)
AC50 (INS1): 2.72 µM (active)
IC50 [11]: 4.6 µM (active)
AC50 [12]: 1.61 µM (active)
CC50 [13]: 3.18 µM (active)
EC50 (Beta-galactosidase [14]): > 40 µM (inactive)
EC50 (Streptococcus): 10.1 µM (active)

O=C(Nc1ccc(F)cc1)C(=O)c1c(O)[nH]c2ccc([N+](=O)[O-])cc12
IC50 (SUMO-activating enzyme [15]): 24 µM (active)
AC50 [16]: 10.4 µM (active)
IC50 [17]: > 50 µM (not active)
IC50 (SUMO-activating enzyme [18]): 9.48 µM (active)

NC(=O)c1ccc(NC(=O)C2CCCC2)cc1
IC50 [19]: > 100 µM (inactive)

Cc1cc(N/N=C/c2ccc(F)cc2)nc(-n2nc(C)cc2C)n1
CC50 [1]: > 20 µM (active)
IC50 (Beta-galactosidase [20]): > 66.6 µM (inactive)
CC50 [4]: 10.8 µM (active)
IC50 (cells): < 0.1 µM (active)
AC50 (INS1): 2.81 µM (active)
IC50 [21]: > 66.6 µM (inactive)
CC50 [13]: 15.6 µM (active)

Cc1ccc(CSc2nnc(SCC(=O)N/N=C/c3c[nH]c4ccccc34)s2)cc1
IC50 [22]: 3.91 µM (active)
IC50 (SUMO-activating enzyme [15]): 17.6 µM (active)
IC50 [23]: > 100 µM (inactive)
IC50 (SUMO-activating enzyme [18]): 1.38 µM (active)
IC50 [24]: 6.88 µM (active)
IC50 (Prothrombin): 55.4 µM (active)

Cc1ccc(/C=N/NC(=O)NC2CCCCC2)o1
EC50 [25]: 3.35 µM (active)

COc1ccc2[nH]cc(CCN(C)C)c2c1 [MEBUFOTENIN]
AC50 (Cytochrome P450 2D6): 20 µM (inconclusive)
AC50 (Cytochrome P450 2C9): inconclusive
EC50 [25]: 0.67 µM (active)
